Here are results for 22 compounds from ChEMBL document CHEMBL5126519, “Tuberculosis drug discovery: Progression and future interventions in the wake of emerging resistance” (Eur J Med Chem, 2022).

≈ marks a conversion by molar mass, not a printed value.

For orientation: MIC means the lowest concentration found to suppress growth. A high value points to a less susceptible organism. What is called MIC99 is the lowest concentration that inhibits either 99% of growth or 99% of the strains tested, depending on the study. Read a low MIC99 as higher susceptibility. As usually defined, the IC50 is the midpoint of a concentration-inhibition curve. A low value points to inhibition by little substance.

For test [1], the system named is Mycobacterium tuberculosis. In words: Antimycobacterial activity against Mycobacterium tuberculosis expressing GFP. It counts as functional.
The test system of test [2] is Mycobacterium tuberculosis. Description: Antimycobacterial activity against Mycobacterium tuberculosis H37Rv by MABA assay. It counts as functional. Background: The colour change of resazurin is a common sign of viable cells or microbes.
In test [3] the test system is Mycobacterium tuberculosis. In words: Antimycobacterial activity against drug-sensitive Mycobacterium tuberculosis. It counts as functional.
In test [4] the test system is Mycobacterium tuberculosis. In words: Antimycobacterial activity against Mycobacterium tuberculosis. It is filed as functional.
In test [5] the test system is Mycobacterium tuberculosis. Description: Antimycobacterial activity against Mycobacterium tuberculosis H37Rv by microplate alamar blue assay. It counts as functional.
Test [6] relates to Mycobacterium tuberculosis. Description: Antimycobacterial activity against Mycobacterium tuberculosis H37Rv by agar dilution method. It counts as functional. On the technique in general: In agar dilution, organisms are placed on agar that contains the substance at set levels.
In test [7] the test system is Mycobacterium tuberculosis. In words: Antimycobacterial activity against drug-susceptible Mycobacterium tuberculosis H37Rv. It is filed as functional.
Test [8] has as its system Mycobacterium tuberculosis. Description: Antimycobacterial activity against Mycobacterium tuberculosis infected in mouse. It is filed as functional.
Test [9] can be described thus: Inhibition of mammalian mitochondrial protein synthesis. It is filed as mitochondria, Mitochondria.
The subject of test [10] is Mycobacterium tuberculosis. In words: Antimycobacterial activity against non-replicating Mycobacterium tuberculosis H37Rv by time kill kinetic assay. It counts as functional.

As to `COCCNC(=O)c1cn(Cc2ccc(F)cc2)c2ccc([N+](=O)[O-])cc2c1=O`, in test [1], the MIC is less than 0.244 µM.

For `Cc1c(C(=O)OCc2ccccc2)[n+]([O-])c2cc(F)c(-n3cncn3)cc2[n+]1[O-]`, the MIC in test [2] is no more than 0.25 µg/mL.

On to `CCNC(=O)Nc1nc2nc(-c3cnc(C(C)(C)O)nc3)c(F)c([C@H]3CCCO3)c2[nH]1`, for which, in test [3], the MIC was determined as 0.03 µg/mL (≈ 0.0699 µM).

`Cc1cc(/C=C/c2ccc3cc(N(C)C)ccc3[n+]2C)c(C)n1-c1ccccc1.Cc1cc(/C=C/c2ccc3cc(N(C)C)ccc3[n+]2C)c(C)n1-c1ccccc1.O=C(O)c1cc2ccccc2c(Cc2c(O)c(C(=O)O)cc3ccccc23)c1O`: the MIC99 in [3] came to 1.55 µg/mL.

For `O[C@@H](c1cc(C(F)(F)F)nc2c(C(F)(F)F)cccc12)[C@H]1CCCCN1` [(S,R)-MEFLOQUINE], the MIC in test [4] was found to be 10 µM.

The compound `CC(C)(C)NCC(O)CSc1nc(-c2ccc(C(N)=O)s2)cs1` (stereo not drawn) [AROTINOLOL] displayed a minimum inhibitory concentration (MIC) in test [5] of 3.12 µM (≈ 1.16 µg/mL).

In turn, `COc1nc2ccc(Br)cc2cc1[C@@H](c1ccccc1)[C@@](O)(CCN(C)C)c1cccc2ccccc12` [BEDAQUILINE] showed a minimum inhibitory concentration (MIC) in test [6] of 0.015 µg/mL (≈ 0.027 µM).

For `C[C@H]1COC2(CCN(c3nc(=O)c4cc(C(F)(F)F)cc([N+](=O)[O-])c4s3)CC2)O1` [BTZ-043], the minimal inhibitory concentration (MIC) in test [4] came to 0.001 µg/mL.

`C[C@]1(COc2ccc(N3CCC(Oc4ccc(OC(F)(F)F)cc4)CC3)cc2)Cn2cc([N+](=O)[O-])nc2O1` [DELAMANID] yielded an MIC in test [7] of 0.0005 µg/mL (≈ 0.000935 µM).

For `CC1=NN(c2ccc(C)c(C)c2)C(=O)/C1=N\Nc1cccc(-c2cccc(C(=O)O)c2)c1O` [ELTROMBOPAG], in test [5], the MIC was 6.25 µM (≈ 2.77 µg/mL).

In [2], `NC[C@H]1OB(O)c2c(OCCO)ccc(Cl)c21` [GANFEBOROLE] yielded a minimum inhibitory concentration (MIC) of 0.08 µM. For the same compound, the ED99 in test [8] came out at 0.4 mg/kg.

With `CN(C)[C@@H]1C(O)=C(C(=O)NCNCCCC[C@H](N)C(=O)O)C(=O)[C@@]2(O)C(O)=C3C(=O)c4c(O)cccc4[C@@](C)(O)[C@H]3C[C@@H]12` [LYMECYCLINE], the minimum inhibitory concentration (MIC) in [4] worked out at 166 µM.

The compound `O=c1nc(N2CCN(CC3CCCCC3)CC2)sc2c([N+](=O)[O-])cc(C(F)(F)F)cc12` [MACOZINONE] came in with an MIC in [4] of 0.00019 µg/mL.

`COc1c(N2C[C@@H]3CCCN[C@@H]3C2)c(F)cc2c(=O)c(C(=O)O)cn(C3CC3)c12` [MOXIFLOXACIN] gave an MIC in test [4] of 1.1 µM.

The compound `CC(=O)Oc1ccccc1C(=O)Nc1ncc([N+](=O)[O-])s1` [NITAZOXANIDE] registered an MIC in test [4] of 33.2 µM.

Compound `O=[N+]([O-])c1cn2c(n1)OC[C@@H](OCc1ccc(OC(F)(F)F)cc1)C2` [PRETOMANID] gave an MIC in test [3] of 0.015 µg/mL (≈ 0.0418 µM).

In turn, `CC(C)=CCC/C(C)=C/CNCCNC1C2CC3CC(C2)CC1C3` (stereo not drawn) [SQ109] registered a minimal inhibitory concentration (MIC) in test [4] of 0.78 µg/mL.

In test [4], `CC(=O)NC[C@H]1CN(c2ccc(N3CCSCC3)c(F)c2)C(=O)O1` [SUTEZOLID] showed a minimal inhibitory concentration (MIC) of 0.062 µg/mL.

With `COC(=O)NC[C@H]1CN(c2ccc(N3CC4(COC4)C3)c(F)c2)C(=O)O1` [TBI-223], the concentration for half-maximal inhibition (IC50) in test [9] was greater than 74 µM.

`CCc1nc2ccc(Cl)cn2c1C(=O)NCc1ccc(N2CCC(c3ccc(OC(F)(F)F)cc3)CC2)cc1` [TELACEBEC]: in test [4], it took 0.008 µg/mL to inhibit growth (MIC).

`CSc1ccc2c(c1)N(CCC1CCCCN1C)c1ccccc1S2` (stereo not drawn) [THIORIDAZINE] returned an MIC in test [4] of 19.6 µM.

In [10], `COc1ccc(CCN(C)CCCC(C#N)(c2ccc(OC)c(OC)c2)C(C)C)cc1OC` (stereo not drawn) [VERAPAMIL] had an MIC of 512 µM (≈ 233 µg/mL).
